Results published in US11311522B1 (Cavion, Inc., priority 2018, dated 2022).
Values joined by “and” are separate entries in the source; they are usually repeats but may differ in a detail not shown here. Equal values may be shown once.

How the values were obtained:
[1] = tested on: patients with essential tremor; experiment: T-CALM: TETRAS total score; type: in vivo, human
Procedure: The Total TETRAS score was defined as the sum of the TETRAS performance subscale total score and the TETRAS ADL subscale score. TETRAS TOTAL score combines both patient reported outcome and objective measurement of tremor amplitude in a single score. Analyses of the TETRAS-ADL was conducted using the same type of ANCOVA model as described for the TETRAS-PS, using two-sided tests at the alpha=0.05 level of significance (FIG. 3 and Table 3).

[2] = Crossover bioavailability study: adverse events; type: in vivo, human; conditions: Any Treatment (Original IR, MR1 or MR2), single 8 mg doses; subjects n (%), N = 15
[3] = target: T1, Cav3.3 (Homo sapiens, UniProt Q9P0X4); experiment: Cav3.3 whole-cell voltage-clamp; type: cell-based
T1 construct: expressed in transfected cells; host or cells: HEK 293
T1 sequence (Q9P0X4 whole entry, species assumed): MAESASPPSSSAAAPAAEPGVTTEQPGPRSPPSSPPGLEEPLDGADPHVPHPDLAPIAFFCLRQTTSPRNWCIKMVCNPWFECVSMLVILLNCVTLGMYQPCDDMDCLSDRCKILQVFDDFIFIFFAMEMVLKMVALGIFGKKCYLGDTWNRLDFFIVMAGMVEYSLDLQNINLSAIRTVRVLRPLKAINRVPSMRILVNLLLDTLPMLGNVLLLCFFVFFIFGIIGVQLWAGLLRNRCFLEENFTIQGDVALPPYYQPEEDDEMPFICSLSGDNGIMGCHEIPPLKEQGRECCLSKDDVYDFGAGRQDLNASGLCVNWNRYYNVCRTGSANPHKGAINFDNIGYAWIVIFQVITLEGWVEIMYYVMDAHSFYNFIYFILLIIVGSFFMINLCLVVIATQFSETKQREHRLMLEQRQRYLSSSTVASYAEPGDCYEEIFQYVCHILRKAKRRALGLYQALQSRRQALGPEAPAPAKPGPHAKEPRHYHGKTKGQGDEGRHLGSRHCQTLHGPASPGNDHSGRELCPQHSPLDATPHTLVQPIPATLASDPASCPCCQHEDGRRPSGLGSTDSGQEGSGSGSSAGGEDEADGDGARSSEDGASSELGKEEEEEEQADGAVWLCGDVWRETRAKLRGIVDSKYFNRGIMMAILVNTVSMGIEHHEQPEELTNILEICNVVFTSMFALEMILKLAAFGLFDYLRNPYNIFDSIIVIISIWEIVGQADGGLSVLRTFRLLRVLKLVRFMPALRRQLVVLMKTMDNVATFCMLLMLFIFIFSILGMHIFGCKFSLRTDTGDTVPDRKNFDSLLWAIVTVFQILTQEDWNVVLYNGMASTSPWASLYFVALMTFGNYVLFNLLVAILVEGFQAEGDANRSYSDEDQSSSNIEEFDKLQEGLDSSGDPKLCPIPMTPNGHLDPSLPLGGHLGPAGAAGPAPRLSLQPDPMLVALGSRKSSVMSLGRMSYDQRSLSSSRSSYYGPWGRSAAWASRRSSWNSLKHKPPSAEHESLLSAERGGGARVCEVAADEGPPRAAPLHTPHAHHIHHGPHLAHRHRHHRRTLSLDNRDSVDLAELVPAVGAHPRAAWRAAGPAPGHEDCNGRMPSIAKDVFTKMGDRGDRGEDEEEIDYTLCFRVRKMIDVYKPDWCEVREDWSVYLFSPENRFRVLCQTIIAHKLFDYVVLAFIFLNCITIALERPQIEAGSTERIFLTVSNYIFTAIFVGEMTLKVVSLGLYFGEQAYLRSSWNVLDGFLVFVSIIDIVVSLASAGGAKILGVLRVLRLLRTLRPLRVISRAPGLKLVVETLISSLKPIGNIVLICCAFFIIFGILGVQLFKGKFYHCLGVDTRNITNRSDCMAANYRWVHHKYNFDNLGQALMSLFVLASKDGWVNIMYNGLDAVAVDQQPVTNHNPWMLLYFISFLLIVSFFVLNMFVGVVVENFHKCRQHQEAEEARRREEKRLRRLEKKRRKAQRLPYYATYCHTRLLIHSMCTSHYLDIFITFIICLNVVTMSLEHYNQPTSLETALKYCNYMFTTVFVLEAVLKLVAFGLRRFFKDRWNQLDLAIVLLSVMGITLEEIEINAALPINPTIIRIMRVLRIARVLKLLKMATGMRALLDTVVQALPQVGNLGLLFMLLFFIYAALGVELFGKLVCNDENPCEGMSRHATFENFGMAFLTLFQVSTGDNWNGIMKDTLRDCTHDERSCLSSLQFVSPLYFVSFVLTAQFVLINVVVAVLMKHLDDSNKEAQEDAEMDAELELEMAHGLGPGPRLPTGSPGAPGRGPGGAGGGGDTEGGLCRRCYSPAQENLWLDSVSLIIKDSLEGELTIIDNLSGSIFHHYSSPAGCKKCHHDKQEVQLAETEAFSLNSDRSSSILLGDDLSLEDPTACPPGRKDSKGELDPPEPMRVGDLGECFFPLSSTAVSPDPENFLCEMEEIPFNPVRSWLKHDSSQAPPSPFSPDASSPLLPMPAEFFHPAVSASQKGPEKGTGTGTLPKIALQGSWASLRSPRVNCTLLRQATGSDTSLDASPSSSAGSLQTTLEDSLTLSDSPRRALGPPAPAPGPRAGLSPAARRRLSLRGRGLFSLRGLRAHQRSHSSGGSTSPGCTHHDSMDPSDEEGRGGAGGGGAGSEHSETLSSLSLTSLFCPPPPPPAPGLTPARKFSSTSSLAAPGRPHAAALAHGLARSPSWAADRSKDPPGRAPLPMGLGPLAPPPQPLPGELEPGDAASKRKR

[4] = target: cannabinoid 2 receptor (CB2) (Homo sapiens, UniProt P34972); experiment: Cannabinoid 2 receptor binding
cannabinoid 2 receptor (CB2), sequence (P34972 whole entry, species assumed): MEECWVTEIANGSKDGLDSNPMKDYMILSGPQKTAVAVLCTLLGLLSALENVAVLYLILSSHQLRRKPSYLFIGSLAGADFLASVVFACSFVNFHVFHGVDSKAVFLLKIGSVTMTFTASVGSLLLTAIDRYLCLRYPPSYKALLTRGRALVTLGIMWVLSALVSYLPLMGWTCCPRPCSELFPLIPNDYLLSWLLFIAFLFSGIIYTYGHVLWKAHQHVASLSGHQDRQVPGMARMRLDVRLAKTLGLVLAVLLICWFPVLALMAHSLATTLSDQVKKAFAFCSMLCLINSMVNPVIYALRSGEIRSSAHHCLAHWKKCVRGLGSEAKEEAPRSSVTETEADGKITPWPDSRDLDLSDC

[5] = target: T2, hERG (Homo sapiens, UniProt Q12809); experiment: hERG PatchXpress assay; type: cell-based; conditions: doses up to 30 μM
T2 construct: expressed in transfected cells; host or cells: CHO-K1
T2 sequence (Q12809 whole entry): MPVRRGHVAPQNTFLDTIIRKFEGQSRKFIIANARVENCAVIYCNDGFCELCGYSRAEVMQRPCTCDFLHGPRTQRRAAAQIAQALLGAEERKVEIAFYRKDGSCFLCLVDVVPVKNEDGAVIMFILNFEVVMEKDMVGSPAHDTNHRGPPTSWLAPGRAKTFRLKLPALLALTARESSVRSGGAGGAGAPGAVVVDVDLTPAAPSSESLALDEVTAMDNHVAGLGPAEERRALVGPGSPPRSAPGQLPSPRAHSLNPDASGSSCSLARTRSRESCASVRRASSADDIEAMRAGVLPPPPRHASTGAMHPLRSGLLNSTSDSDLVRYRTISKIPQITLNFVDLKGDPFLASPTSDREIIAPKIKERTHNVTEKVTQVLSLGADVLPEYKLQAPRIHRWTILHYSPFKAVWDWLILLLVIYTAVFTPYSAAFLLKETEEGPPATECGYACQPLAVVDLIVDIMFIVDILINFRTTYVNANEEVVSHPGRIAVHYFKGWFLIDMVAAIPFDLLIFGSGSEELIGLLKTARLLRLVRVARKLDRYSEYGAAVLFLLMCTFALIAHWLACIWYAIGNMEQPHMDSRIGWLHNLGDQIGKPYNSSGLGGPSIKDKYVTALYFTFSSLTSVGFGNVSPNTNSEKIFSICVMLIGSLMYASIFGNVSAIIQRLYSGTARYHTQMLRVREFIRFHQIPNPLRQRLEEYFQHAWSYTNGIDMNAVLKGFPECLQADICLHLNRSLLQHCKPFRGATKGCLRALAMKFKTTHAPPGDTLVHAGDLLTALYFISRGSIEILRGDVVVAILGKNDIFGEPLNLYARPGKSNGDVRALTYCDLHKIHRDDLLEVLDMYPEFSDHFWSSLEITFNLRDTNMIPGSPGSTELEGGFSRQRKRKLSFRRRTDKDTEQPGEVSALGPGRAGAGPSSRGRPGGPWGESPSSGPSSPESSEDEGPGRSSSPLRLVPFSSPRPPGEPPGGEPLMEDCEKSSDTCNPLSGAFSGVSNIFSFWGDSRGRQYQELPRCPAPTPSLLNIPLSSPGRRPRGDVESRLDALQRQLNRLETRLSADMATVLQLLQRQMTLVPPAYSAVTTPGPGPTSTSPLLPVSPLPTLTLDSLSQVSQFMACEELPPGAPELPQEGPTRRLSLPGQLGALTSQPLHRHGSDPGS

[6] = Excretion of 14C-labeled CX-8998 in rats; type: in vivo, rat; conditions: 20 mg/kg oral
Excerpt: Glucuronide conjugates of the oxygenated metabolites are detected in human, monkey, and dog hepatocyte preparations. […] However, the abundance of CYP3A5, CYP2C19, and CYP2D6 in human liver microsomes is low (2%-5%) relative to the primary contributors, CYP3A4 (˜30%) and CYP2C9 (˜20%). […] Information on reproductive and developmental toxicology was obtained in a 28-day pivotal female fertility study in rats and in preliminary embryo-fetal development studies in rats and rabbits.

[7] = PN005: safety and tolerability; type: in vivo, human
Excerpt: The visual disturbances tended to cease with eye opening and to recur with eye closure and were generally not disturbing to the subjects. […] No serious adverse events were reported, and none of the subjects discontinued treatment because of an adverse event. […] 5.3.3.1.3.2 Other Safety Assessments No clinically significant trends in safety laboratory parameters or vital signs were observed. […] No changes of ≥60 msec from baseline occurred, and no subject has a QTc interval ≥500 msec. […] The most common adverse events were headache, vivid dreams, and visual and/or auditory disturbances or hallucinations (typically described as seeing geometric shapes, colors, lights, and/or movement and hearing tones like from a telephone or electronic music). […] Clinical safety was monitored throughout the study by adverse events, clinical laboratory tests, vital signs, ECGs, and ECG telemetry.

[8] = tested on: patients with schizophrenia; experiment: PN004: efficacy in acutely psychotic patients with schizophrenia (PANSS); conditions: human, in vivo
Excerpt: The primary efficacy endpoint was the mean change from baseline in the Positive and Negative Syndrome Scale (PANSS) total score at Week 4; secondary efficacy endpoints included responder rates on the PANSS total score at Week 4 and the change from baseline in the Clinical Global Impressions—Severity of Illness Scale at Week 4. Safety was monitored by adverse events, laboratory evaluations, ECGs, Holter monitoring, vital signs, the Simpson-Angus Scale, the Barnes Akathisia Rating Scale, the Abnormal Involuntary Movement Scale, and the Columbia Suicide-Severity Rating scale (C-SSRS).

[9] = doses up to 6000 μg/plate
[10] = in vivo
[11] = in vivo; conditions: female, rat, po
[12] = 90-day oral toxicology in rats; conditions: both, rat, in vivo
[13] = 7-day dose-range-finding toxicology in female rats
[14] = single dose 8 mg, N = 7, middle-aged and elderly female subjects, Study PN005

Structure (SMILES): CC(C)c1ccc(CC(=O)N[C@H](C)c2ccc(OCC(F)(F)F)cn2)cc1 [CX-8998]
- Change from baseline in TETRAS-Total, LS mean ([1]; Day 15 (8 mg BID)): −7.5±1.42 and −7.5
- Change from baseline in TETRAS-Total, LS mean ([1]; Day 28 (10 mg BID)): −9.0±1.66 and −9
- >5 to 10 point worsening ([1]; TETRAS Total, Day 15): 0 n (%)
- >10 point worsening ([1]; TETRAS Total, Day 15): 0 n (%)
- 0 change ([1]; TETRAS Total, Day 28): 0 n (%)
- >5 to 10 point worsening ([1]; TETRAS Total, Day 28): 0 n (%)
- >10 point worsening ([1]; TETRAS Total, Day 28): 0 n (%)
- Adverse Event: Abnormal dreams [2]: 3 (20%)
- Adverse Event: Any [2]: 11 (73%)
- Adverse Event: Dizziness [2]: 5 (33%)
- Adverse Event: Euphoric mood [2]: 2 (13%)
- Adverse Event: Feeling abnormal [2]: 4 (27%)
- Adverse Event: Headache [2]: 5(33%)
- Adverse Event: Nervous System [2]: 10 (67%)
- Adverse Event: Paresthesias [2]: 7 (47%)
- Adverse Event: Psychiatric [2]: 5 (33%)
- IC50 ([3]; Vh −80 mV): ~84 nM and 84 nM
- IC50 ([3]; Vh=−100 mV): ~2400 nM and 2400 nM
- inhibition at 10 µM ([4]; 10 μM): 53%
- IC50 ([4]; calculated): 5340 nM
- IC50 [5]: 28000 nM
- IC20 ([5]; human, CHO-K1 cells expressing hERG): 8700 nM
- Dose excreted in feces as unchanged drug [6]: Less than 1%
- Radioactivity in feces [6]: approximately 5%
- Radioactivity recovered in bile [6]: 46%
- Radioactivity recovered in urine [6]: 43%
- Recovered radioactivity excreted in the first day [6]: > 85%
- Recovery of label after 72 hours [6]: ~96%
- Tolerability ([7]; single 8 mg dose): well tolerated
- Alanine aminotransferase increased [7, 14]: 1 (14.3) n (%)
- At least 1 adverse event [7, 14]: 6 (85.7) n (%)
- Dry mouth [7, 14]: 1 (14.3) n (%)
- Eye Disorders [7, 14]: 1 (14.3) n (%)
- Gastrointestinal Disorders [7, 14]: 3 (42.9) n (%)
- Hot flush [7, 14]: 1 (14.3) n (%)
- Hypoaesthesia oral [7, 14]: 1 (14.3) n (%)
- Inappropriate laughter [7, 14]: 2 (28.6) n (%)
- Infections and Infestations [7, 14]: 1 (14.3) n (%)
- Investigations [7, 14]: 1 (14.3) n (%)
- Irritability [7, 14]: 1 (14.3) n (%)
- Nausea [7, 14]: 1 (14.3) n (%)
- Nervousness [7, 14]: 1 (14.3) n (%)
- Psychiatric Disorders [7, 14]: 4 (57.1) n (%)
- Racing thoughts [7, 14]: 1 (14.3) n (%)
- Shingles [7, 14]: 1 (14.3) n (%)
- Vascular Disorders [7, 14]: 1 (14.3) n (%)
- Vision blurred [7, 14]: 1 (14.3) n (%)
- Vomiting [7, 14]: 1 (14.3) n (%)
- PANSS total score change at Week 4 and secondary endpoints vs placebo [8]: No statistically significant differences
- Ames assay result [9]: negative
- Micronuclei induction in bone marrow result [10]: negative
- AUC ([11]; 10 mg/kg/day): 20.7 µM·h
- Tmax ([11]; 10 mg/kg/day): 3.4 h
- AUC ([11]; 100 mg/kg/day): 94.6 µM·h
- AUC ([11]; 500 mg/kg/day): 219 µM·h
- Tmax ([11]; 500 mg/kg/day): 4.8 h
- NOAEL at 90 days ([12]; Sprague-Dawley, po): 300 mg/kg/day
- NOAEL at 90 days ([12]; oral): 300 mg/kg/day
- NOEL ([13]; Sprague-Dawley rat, 7-day exploratory toxicity, oral gavage): 500 mg/kg/day
- findings indicative of dose-limiting toxicity ([13]; Sprague-Dawley rat, 10, 100, or 500 mg/kg/day oral gavage for 7 days): No findings
